The subject of data set [1] is Sagittaria pygmaea. Kind of data set: Herbicidal activity against Sagittaria pygmaea assessed as weed control in transplanted rice field at 1500 g/ha treated after 7 days transplanting. It counts as functional.
In data set [2] the test system is Oryza sativa. Kind of data set: Effect on Oryza sativa (rice) plant growth in transplanted Oryza sativa field assessed as number of tillers at 1500 g/ha treated after 3 days transplanting. It counts as organism-based. Conditions: in vivo, other, 72 h.
The subject of data set [3] is unidentified. The data set is described as follows: Herbicidal activity against broadleaf weed assessed as weed control in transplanted rice field at 1500 g/ha treated after 7 days transplanting. It counts as functional.
Data set [4] concerns Cyperus serotinus. Kind of data set: Herbicidal activity against Cyperus serotinus assessed as weed control in transplanted rice field at 1500 g/ha treated after 3 days transplanting. It counts as functional.
Data set [5] relates to Oryza sativa. Kind of data set: Effect on Oryza sativa (rice) plant growth in transplanted Oryza sativa field assessed as plant height at 1500 g/ha treated after 7 days transplanting. It counts as organism-based. Conditions: in vivo, other, 168 h.
The test system of data set [6] is Schoenoplectiella juncoides. Kind of data set: Herbicidal activity against Schoenoplectiella juncoides assessed as weed control in transplanted rice field at 1500 g/ha treated after 3 days transplanting. It counts as functional.
Data set [7] has as its system Sagittaria pygmaea. Kind of data set: Herbicidal activity against Sagittaria pygmaea assessed as weed control in transplanted rice field at 1500 g/ha treated after 3 days transplanting. It counts as functional.
In data set [8] the test system is Echinochloa crus-galli. The data set is described as follows: Herbicidal activity against Echinochloa crus-galli (barnyard grass) assessed as weed control in transplanted rice field at 1500 g/ha treated after 7 days transplanting. It counts as functional.
Data set [9] deals with Pontederia vaginalis. The data set is described as follows: Herbicidal activity against Monochoria vaginalis assessed as weed control in transplanted rice field at 1500 g/ha treated after 7 days transplanting. It counts as functional.
Data set [10] deals with Echinochloa crus-galli. The data set is described as follows: Herbicidal activity against Echinochloa crus-galli (barnyard grass) assessed as weed control in transplanted rice field at 1500 g/ha treated after 3 days transplanting. It counts as functional.
In data set [11] the test system is unidentified. Kind of data set: Herbicidal activity against broadleaf weed assessed as weed control in transplanted rice field at 1500 g/ha treated after 3 days transplanting. It counts as functional.
In data set [12] the test system is Oryza sativa. Kind of data set: Effect on Oryza sativa (rice) plant growth in transplanted Oryza sativa field assessed as plant height at 1500 g/ha treated after 3 days transplanting. It counts as organism-based. The note with it: in vivo, other, 72 h.
The subject of data set [13] is Pontederia vaginalis. Kind of data set: Herbicidal activity against Monochoria vaginalis assessed as weed control in transplanted rice field at 1500 g/ha treated after 3 days transplanting. It counts as functional.
Data set [14] deals with Cyperus serotinus. Kind of data set: Herbicidal activity against Cyperus serotinus assessed as weed control in transplanted rice field at 1500 g/ha treated after 7 days transplanting. It counts as functional.
Data set [15] relates to Oryza sativa. Kind of data set: Effect on Oryza sativa (rice) plant growth in transplanted Oryza sativa field assessed as number of tillers at 1500 g/ha treated after 7 days transplanting. It counts as organism-based. Conditions: in vivo, other, 168 h.
For data set [16], the system named is Schoenoplectiella juncoides. Kind of data set: Herbicidal activity against Schoenoplectiella juncoides assessed as weed control in transplanted rice field at 1500 g/ha treated after 7 days transplanting. It counts as functional.

As for `CCCCOCN(C(=O)CCl)c1c(CC)cccc1CC` [BUTACHLOR], the Activity is recorded as 20% with Sagittaria pygmaea [1]; 99% in the data set on Oryza sativa [2]; 83% in the data set on unidentified [3]; 63% with Cyperus serotinus [4]; 103% in the data set on Oryza sativa [5]; 100% in data set [6]. The Activity with Sagittaria pygmaea [7] is reported as 27%; in the data set with Echinochloa crus-galli [8], 100%; with Pontederia vaginalis [9], 43%; with Echinochloa crus-galli [10] it was 98%; with unidentified [11], 100%; in the data set on Oryza sativa [12], 106%. Besides, the Activity came to 90% in the data set with Pontederia vaginalis [13], 70% in the data set with Cyperus serotinus [14], 93% with Oryza sativa [15] and 88% in data set [16].

(Values after ChEMBL document CHEMBL3046449, “Selective Herbicidal Activities of Ethyl 5-(4, 6-Dimethoxypyrimidin-2-ylcarbamoylsulfamoyl)-1-methylpyrazole-4-carboxylate and Its Related Compounds” (J Pestic Sci, 1990).)
